Measurements published in publication PMC4684245, “Diversity of ABBA Prenyltransferases in Marine Streptomyces sp. CNQ-509: Promiscuous Enzymes for the Biosynthesis of Mixed Terpenoid Compounds” (PLoS ONE, 2015).

Legend:
Assay in all cases: HPLC-UV and LC-MS product detection
Assay type in all cases: biochemical
CnqP4 = target: T1, CnqP4 (Streptomyces sp. CNQ-509, UniProt A0A0F7NDN9); settings: […] aromatic substrate, […] GPP, […] MgCl2, Tris-HCl pH […] °C, […] h
T1 construct: gene AA958_24270; full-length, 303 aa; N-terminal His8 tag (pHis8) kept; E. coli Rosetta2(DE3)pLysS

CnqP6 = target: T2, CnqP6 (Streptomyces sp. CNQ-509, UniProt A0A0F7N6A5); settings: […] °C, […] h
T2 construct: gene AA958_12635; full-length, 300 aa; N-terminal His8 tag (pHis8) kept; E. coli Rosetta2(DE3)pLysS

CnqP3 = target: T3, CnqP3 (Streptomyces sp. CNQ-509, UniProt A0A0F7NDP3); settings: […] °C, […] h
T3 construct: gene AA958_24325; full-length, 305 aa; N-terminal His8 tag (pHis8) kept; E. coli Rosetta2(DE3)pLysS

[1] = […] aromatic substrate, […] GPP, […] MgCl2, Tris-HCl pH […]

T3 sequence (A0A0F7NDP3 1-305): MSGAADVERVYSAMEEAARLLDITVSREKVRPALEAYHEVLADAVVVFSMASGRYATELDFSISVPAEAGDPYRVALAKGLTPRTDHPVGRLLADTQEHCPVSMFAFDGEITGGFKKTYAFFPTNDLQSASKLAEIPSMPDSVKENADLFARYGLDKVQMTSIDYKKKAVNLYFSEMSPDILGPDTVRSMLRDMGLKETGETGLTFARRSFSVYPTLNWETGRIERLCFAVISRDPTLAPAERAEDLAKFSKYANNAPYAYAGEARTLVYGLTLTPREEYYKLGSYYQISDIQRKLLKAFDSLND
T2 sequence (A0A0F7N6A5 1-300): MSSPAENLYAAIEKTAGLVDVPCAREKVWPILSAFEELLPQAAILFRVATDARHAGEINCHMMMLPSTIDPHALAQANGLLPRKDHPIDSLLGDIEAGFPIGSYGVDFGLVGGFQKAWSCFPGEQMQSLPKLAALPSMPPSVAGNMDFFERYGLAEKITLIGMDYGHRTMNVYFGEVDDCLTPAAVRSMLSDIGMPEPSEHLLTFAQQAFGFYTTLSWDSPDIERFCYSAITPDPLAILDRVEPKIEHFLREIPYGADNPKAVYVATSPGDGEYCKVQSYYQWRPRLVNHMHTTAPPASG
T1 sequence (A0A0F7NDN9 1-303): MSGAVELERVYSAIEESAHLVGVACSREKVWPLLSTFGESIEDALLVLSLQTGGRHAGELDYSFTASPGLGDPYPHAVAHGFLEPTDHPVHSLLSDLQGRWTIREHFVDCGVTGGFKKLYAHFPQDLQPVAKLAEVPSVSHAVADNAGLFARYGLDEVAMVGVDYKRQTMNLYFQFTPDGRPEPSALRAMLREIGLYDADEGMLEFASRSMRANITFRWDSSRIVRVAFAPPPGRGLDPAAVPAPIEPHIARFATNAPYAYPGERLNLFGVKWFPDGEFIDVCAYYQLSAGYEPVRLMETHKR

## Oc1ccc2ccc(O)cc2c1 [2,7-DHN]
CnqP4
  HPLC-UV and LC-MS product detection: we found monogeranylated products for CnqP2, CnqP3 and CnqP4

## CC(C)=CCC/C(C)=C/COP(=O)(O)OP(=O)(O)O [GPP]
CnqP6; with genistein ([…]), […] GPP, […] MgCl2, Tris-HCl pH […]
  HPLC-UV and LC-MS product detection: genistein was converted with GPP by the prenyltransferases CnqP2, CnqP3 and CnqP6
CnqP3; with flaviolin ([…]), […] GPP, […] MgCl2, Tris-HCl pH […]
  HPLC-UV and LC-MS product detection: Incubation with GPP resulted in the production of a new compound

## O=C1C(O)=CC(=O)c2c(O)cc(O)cc21 [flaviolin]
CnqP3; [1]
  HPLC-UV and LC-MS product detection: Only CnqP3 accepted flaviolin as a substrate.

## O=c1c(-c2ccc(O)cc2)coc2cc(O)cc(O)c12 [genistein]
CnqP6; [1]
  HPLC-UV and LC-MS product detection: genistein was converted with GPP by the prenyltransferases CnqP2, CnqP3 and CnqP6
